Source: publication PMC4964800 (Bioorganic & medicinal chemistry letters, 2016)

Columns and labels:
Type in all cases: cell-based
[1] = test system: STAT1; assay: IFN-γ-induced STAT1 pathway activation assay; conditions: read-out: STAT1 IC50
[2] = test system: STAT3; assay: IL-6-induced STAT3 activation high content; conditions: for IC50: Homo sapiens, CAL-33, read-out: STAT3 IC50; for times less active (STAT3) after exchanging R-substituents of 1a and 2b: compared with 1a and 2b; for fold improvement in STAT3 potency compared to original hit 2b: vs 2b
[3] = test system: pSTAT3 and STAT3 target gene Cyclin D1; assay: Western blot analysis in IL-6-stimulated Cal33 cells; conditions: IL-6 (50 ng/mL)-stimulated Cal33 cells

IC50 [1] [µM] | IC50 [2] [µM] | SMILES | also measured
40.6 ± 7.5 |  | COc1ccc(C2=Nn3c(nnc3-c3[nH]nc4c3CCC4)SC2)cc1 [Compound 6a] | 
> 50 | 4.1 | CC(C)CC1Sc2nnc(-c3[nH]nc4c3CCC4)n2N=C1c1ccc(Cl)c(Cl)c1 (stereo not drawn) [Compound 25] | 
> 50 |  | COc1ccc(C2=Nn3c(nnc3-c3[nH]nc4c3CCC4)SC2C(C)C)cc1 (stereo not drawn) [Compound 24] | 
> 50 |  | c1ccc(C2=Nn3c(nnc3-c3cc(-c4ccccc4)[nH]n3)SC2)cc1 [Compound 5b] | 
> 50 |  | c1ccc(-c2cc(-c3nnc4n3N=C(C3CCCCC3)CS4)[nH]n2)cc1 [Compound 11b] | 
> 50 |  | COc1ccc(C2=Nn3c(nnc3-c3cc(-c4ccccc4)n[nH]3)SC2CC(C)C)cc1 (stereo not drawn) [Compound 26] | 
> 50 |  | CC1=Nn2c(nnc2-c2cc(-c3ccccc3)[nH]n2)SC1 [Compound 10b] | 
> 50 |  | Clc1ccc(C2=Nn3c(nnc3-c3[nH]nc4c3CCC4)SC2)s1 [Compound 8a] | 
> 50 | 9.6 ± 7.8 | Clc1ccc(C2=Nn3c(nnc3-c3cc(-c4ccccc4)[nH]n3)SC2)cc1 [Compound 2b] | 
> 50 |  | Clc1ccc(C2=Nn3c(nnc3-c3cc(-c4ccccc4)n[nH]3)SC2)s1 [Compound 8b] | 
 |  | COc1ccc(C2CSc3nnc(-c4cc(-c5ccccc5)n[nH]4)n3N2C(C)=O)cc1 (stereo not drawn) [Compound 13] | activity in the STAT3 assay (in words) [2]: inactive
> 50 |  | Clc1ccc(C2=Nn3c(nnc3-c3[nH]nc4c3CCC4)SC2)cc1 [Compound 2a] | times less active (STAT3) after exchanging R-substituents of 1a and 2b [2]: 3–4 times
> 30 | 3.8 ± 0.8 | CC1Sc2nnc(-c3cc(-c4ccc(F)cc4)n[nH]3)n2N=C1c1ccccc1 (stereo not drawn) [Compound 20] | fold improvement in STAT3 potency compared to original hit 2b [2]: 2–3 fold
> 50 | 4.4 | CC(C)C1Sc2nnc(-c3[nH]nc4c3CCC4)n2N=C1c1ccc(Cl)c(Cl)c1 (stereo not drawn) [Compound 23] | 
> 50 | 7.5 | Clc1ccc(C2=Nn3c(nnc3-c3[nH]nc4c3CCC4)SC2Cc2ccccc2)cc1Cl (stereo not drawn) [Compound 27] | 
> 50 |  | C1=Nn2c(nnc2-c2[nH]nc3c2CCC3)SC1 [Compound 9a] | 
15 | 3.4 | CC1Sc2nnc(-c3cc(-c4ccccc4)n[nH]3)n2N=C1c1ccccc1 (stereo not drawn) [Compound 19] | downstream STAT3 target gene Cyclin D1 by Western blot [3]: significant inhibition; pSTAT3 levels by Western blot [3]: pronounced decreases; fold improvement in STAT3 potency compared to original hit 2b [2]: 2–3 fold
 |  | Clc1ccc(C2=Nn3c(nnc3-c3[nH]nc4c3CCCC4)SC2)cc1Cl [Compound 16] | fold less active than cyclopentyl analog 1a ([2]; vs 1a): ~ 2 fold

IC50 [1] [µM] | IC50 [2] [µM] | SMILES | also measured
45.9 ± 8.3 | 5.6 ± 4 | Clc1cccc(C2=Nn3c(nnc3-c3cc(-c4ccccc4)n[nH]3)SC2)c1 [Compound 4b] | 
> 50 |  | C1CCC(C2=Nn3c(nnc3-c3[nH]nc4c3CCC4)SC2)CC1 [Compound 11a] | 
 |  | Fc1ccc(-c2cc(-c3nnc4n3N=C(c3ccc(Cl)c(Cl)c3)CS4)[nH]n2)cc1 [Compound 14] | fold improvement in STAT3 potency over unsubstituted analog 1b ([2]; vs 1b): ~ 4 fold
> 50 | 6.8 ± 3.7 | Clc1ccc(C2=Nn3c(nnc3-c3[nH]nc4c3CCC4)SC2)cc1Cl [Compound 1a] | 
> 50 |  | CC1=Nn2c(nnc2-c2[nH]nc3c2CCC3)SC1 [Compound 10a] | 
> 50 | 18.6 | CC1(C)Sc2nnc(-c3[nH]nc4c3CCC4)n2N=C1c1ccc(Cl)c(Cl)c1 [Compound 30] | 
> 50 |  | Clc1cccc(C2=Nn3c(nnc3-c3[nH]nc4c3CCC4)SC2)c1 [Compound 4a] | 
> 50 |  | COc1ccc(C2=Nn3c(nnc3-c3cc(-c4ccccc4)n[nH]3)SC2)cc1 [Compound 6b] | 
> 50 |  | c1ccc(-c2cc(-c3nnc4n3N=C(c3ccncc3)CS4)[nH]n2)cc1 [Compound 7b] | 
> 30 | 4.2 | COc1ccc(C2=Nn3c(nnc3-c3cc(-c4ccc(F)cc4)n[nH]3)SC2C)cc1 (stereo not drawn) [Compound 21] | fold improvement in STAT3 potency compared to original hit 2b [2]: 2–3 fold
> 50 |  | C1=Nn2c(nnc2-c2cc(-c3ccccc3)n[nH]2)SC1 [Compound 9b] | 
> 50 |  | Clc1ccc(C2=Nn3c(nnc3-c3cc(-c4ccccc4)n[nH]3)SC2)cc1Cl [Compound 1b] | times less active (STAT3) after exchanging R-substituents of 1a and 2b [2]: 3–4 times
> 50 |  | c1cc(C2=Nn3c(nnc3-c3[nH]nc4c3CCC4)SC2)ccn1 [Compound 7a] | 
> 50 | 21.2 ± 23.5 | c1ccc(C2=Nn3c(nnc3-c3[nH]nc4c3CCC4)SC2)cc1 [Compound 5a] | 
 |  | COc1ccc(C2CSc3nnc(-c4[nH]nc5c4CCC5)n3N2)cc1 (stereo not drawn) [Compound 12] | activity in the STAT3 assay (in words) [2]: inactive
 |  | COc1ccc(C2=Nn3c(nnc3-c3cc(-c4ccc(Cl)cc4)n[nH]3)SC2C)cc1 (stereo not drawn) [Compound 22] | downstream STAT3 target gene Cyclin D1 by Western blot [3]: significant inhibition; pSTAT3 levels by Western blot [3]: pronounced decreases
> 50 | 9.1 | COc1ccc(C2=Nn3c(nnc3-c3[nH]nc4c3CCC4)SC2C)cc1 (stereo not drawn) [Compound 18] | 
> 50 | 8.2 ± 2.2 | CC1Sc2nnc(-c3[nH]nc4c3CCC4)n2N=C1c1ccc(Cl)c(Cl)c1 (stereo not drawn) [Compound 17] | 
